Patent US20250154142A1, “THIADIAZOLE-SUBSTITUTED COMPOUND, PHARMACEUTICAL COMPOSITIONS THEREOF, AND APPLICATIONS THEREOF” (Shanghai Yingli Pharmaceutical Co., Ltd., priority 2023, published 2025)

Assays:
[1] = Pharmacokinetic studies in mice after intravenous and oral administration; assay type: in vivo; conditions: mouse, male CD-1 mice, plasma
Protocol: After intravenous and oral administration to male C57BL/6J mice or male CD-1 mice, plasma samples were collected through the orbital venous plexus at 8-9 time points (e.g., 5 min, 15 min, 30 min, 1 h, 2 h, 4 h, 7 h, 24 h or 5 min, 15 min, 30 min, 1 h, 2 h, 4 h, 6 h, 8 h, 24 h). The collected blood samples were transferred to microcentrifuge tubes containing EDTA-K2 anticoagulant, and the […] were centrifuged for 5 min at 4° C. and 4000 g. The supernatants were stored in a refrigerator at −75° C.±15° C. The concentrations of the compounds in the plasma at the different time points were detected by LC-MS/MS and the relevant pharmacokinetic parameters were calculated using the WinNonlin software

PARG (389-976) = target: T1, PARG (389-976) (Homo sapiens, UniProt Q86W56); test: PARG enzyme inhibition assay (TR-FRET); assay type: biochemical; conditions: Bio PARylated His-TEV-PARP1 substrate
T1 construct: 5 μL of PARG (389-976) (manufactured by Chempartner Chemical Co., Ltd.); purchased Chempartner Chemical Co., Ltd
Protocol: PARG in vitro assays were conducted in standard 384-well plates in a total volume of 15 μL. 5 μL of PARG (389-976) (manufactured by Chempartner Chemical Co., Ltd.) in buffer (50 mM Tris-HCL 7.5, 30 mM KCl, 1 mM EDTA, 3 mM DTT, tween-20 0.01%, BSA 0.025%) was added at a final concentration of 1.5 pM to the 384-well plates containing the compounds to be tested, which was incubated for 30 min at room temperature. To the above mixture was added 5 μL Bio PARylated His-TEV-PARP1 (2-1014) substrate (manufactured by Chempartner Chemical Co., Ltd.) at a final concentration of 12 nM, after addition, the resulting mixture was incubated for 30 minutes at room temperature. Then to the mixture was added detection reagent (5 μL) which was buffered with 50 mM Tris-HCL 7.5, 30 mM KCl, 1 mM EDTA, 3 mM DTT, tween-20 0.01%, BSA 0.025%, and consisted of 3 μM of compound PDD00017273 and 9 nM Mab anti-6HIS XL665 (Cisbio: 61HISXLA) and 0.9 nM streptavidin affinity terbium cryptate (Cisbio: 610SATLA), all at 3× working concentrations (final concentrations of […], 3 nM and 0.3 nM, respectively). After 120 min incubation in the dark at room temperature, TR-FRET signals were measured at Ex 340 and Em 665 and Em 615. The ratio for each well was calculated as Em 665/Em 615 and the compound inhibition rate was calculated based on the obtained data.

T1 sequence (Q86W56 389-976): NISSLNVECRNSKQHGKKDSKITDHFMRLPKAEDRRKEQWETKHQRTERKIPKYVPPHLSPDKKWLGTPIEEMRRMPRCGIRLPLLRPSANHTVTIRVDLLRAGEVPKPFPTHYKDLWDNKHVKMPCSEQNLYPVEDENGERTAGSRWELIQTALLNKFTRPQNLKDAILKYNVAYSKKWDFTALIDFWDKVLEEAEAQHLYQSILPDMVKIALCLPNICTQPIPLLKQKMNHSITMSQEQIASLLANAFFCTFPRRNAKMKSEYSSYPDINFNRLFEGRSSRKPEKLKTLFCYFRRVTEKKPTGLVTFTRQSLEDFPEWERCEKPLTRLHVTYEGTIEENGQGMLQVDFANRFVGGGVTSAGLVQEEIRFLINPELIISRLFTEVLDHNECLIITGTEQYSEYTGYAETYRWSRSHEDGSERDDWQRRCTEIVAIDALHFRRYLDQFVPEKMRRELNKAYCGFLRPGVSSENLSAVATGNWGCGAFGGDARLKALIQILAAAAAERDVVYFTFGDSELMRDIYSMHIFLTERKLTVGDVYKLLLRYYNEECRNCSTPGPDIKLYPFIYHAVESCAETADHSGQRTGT

SMILES	AUC(0-inf) ([1]; intravenous 5 mg/kg) [µg·h/mL]	AUC(0-t) ([1]; intravenous 5 mg/kg) [µg·h/mL]	clearance ([1]; intravenous 5 mg/kg) [L/h/kg]	AUC(0-inf) ([1]; oral administration 10 mg/kg) [µg·h/mL]	AUC(0-t) ([1]; oral administration 10 mg/kg) [µg·h/mL]	Cmax ([1]; oral administration 10 mg/kg) [µg/mL]	IC50 (PARG (389-976); class symbol) [nM]	IC50 (PARG (389-976); numeric value) [nM]
C[C@H]1CN(c2cc(S(=O)(=O)NC3(C)CC3)cc3c2cnn3-c2nnc(C(F)(F)F)s2)C[C@H](C)N1 [Compound 1]	3.7	2.54	1.35	2.98	2.61	0.175	< 2	0.2
C[C@H]1CN(c2cc(S(=O)(=O)NC3(C)CC3)cc3c2cnn3-c2nnc(C(F)F)s2)C[C@H](C)N1 [Compound 1′, reference compound]	0.939	0.905	5.37	0.929	0.725	0.0988	< 2	0.21
C[C@H]1CN(c2cc(S(=O)(=O)NC3(C#N)CC3)cc3c2cnn3-c2nnc(C(F)(F)F)s2)C[C@H](C)N1 [Compound 2]	–	–	–	–	–	–	< 2	0.62
C[C@H]1CN(c2c(F)c(S(=O)(=O)NC3(C#N)CC3)cc3c2cnn3-c2nnc(C(F)(F)F)s2)C[C@H](C)N1 [Compound 3]	2.42	2.41	2.09	4.08	4.07	0.513	–	–
C[C@H]1CN(c2c(F)c(S(=O)(=O)NC3(C)CC3)cc3c2cnn3-c2nnc(C(F)(F)F)s2)C[C@H](C)N1 [Compound 4]	2.35	1.99	2.14	3.97	3.26	0.198	< 2	–
C[C@H]1CN(c2c(F)c(S(=O)(=O)NC3(C)CC3)cc3c2cnn3-c2nnc(C(F)F)s2)C[C@H](C)N1 [Compound 5]	1.62	1.6	3.1	2	1.97	0.172	< 2	–
